How the values were obtained:
Format in all cases: in vivo
Stellaria [1] = assay: Post-emergent herbicidal action; conditions: 2000 g AS/ha sprayed in the 4- to 6-leaf stage; evaluated about 18 days later; rating scale 1-9 (1=total damage, 9=no action)
From the text: (§1) In a greenhouse, monocot and dicot test plants are sown in standard soil in plastic pots and sprayed in the 4- to 6-leaf stage with an aqueous suspension of the test compounds of formula I prepared from a 25% wettable powder [Example F3, b) of WO 97/34485] or with an emulsion of the test compound of formula I prepared from a 25% emulsifiable concentrate [Example F1 c) of WO 97/34485] at a concentration of 2 kg active substance/ha (500 l of water/ha). The test plants are then further cultivated in the greenhouse under optimum conditions. The test is evaluated about 18 days later on a rating scale of 1-9 (1=total damage, 9=no action). Ratings of 1 to 4 (especially of 1 to 3) denote good to very good herbicidal action.

Sinapsis [2] = assay: Post-emergent herbicidal action; conditions: 2000 g AS/ha sprayed in the 4- to 6-leaf stage; evaluated about 18 days later; rating scale 1-9 (1=total damage, 9=no action)
From the text: as §1

Setaria [3] = assay: Post-emergent herbicidal action; conditions: 2000 g AS/ha sprayed in the 4- to 6-leaf stage; evaluated about 18 days later; rating scale 1-9 (1=total damage, 9=no action)
From the text: as §1

Cyperus [4] = assay: Post-emergent herbicidal action; conditions: 2000 g AS/ha sprayed in the 4- to 6-leaf stage; evaluated about 18 days later; rating scale 1-9 (1=total damage, 9=no action)
From the text: as §1

Solanig [5] = assay: Post-emergent herbicidal action; conditions: 2000 g AS/ha sprayed in the 4- to 6-leaf stage; evaluated about 18 days later; rating scale 1-9 (1=total damage, 9=no action)
From the text: as §1

Stellaria [6] = assay: Pre-emergent herbicidal action; conditions: 2000 g AS/ha sprayed immediately after sowing; evaluated 3 weeks later; rating scale 1-9 (1=total damage, 9=no action)
From the text: (§2) Monocot and dicot test plants are sown in standard soil in plastic pots. Immediately after sowing, the plants are sprayed at a concentration of 2 kg active substance/ha with an aqueous suspension of the test compound [prepared from a 25% wettable powder (Example F3, b) in accordance with WO 97/34485] or an emulsion of the test compound [prepared from a 25% emulsifiable concentrate (Example Fl c)] (500 l of water/ha). The test plants are then cultivated in the greenhouse under optimum conditions. The test is evaluated 3 weeks later on a rating scale of 1-9 (1=total damage, 9=no action). Ratings of 1 to 4 (especially of 1 to 3) denote good to very good herbicidal action.

Sinapsis [7] = assay: Pre-emergent herbicidal action; conditions: 2000 g AS/ha sprayed immediately after sowing; evaluated 3 weeks later; rating scale 1-9 (1=total damage, 9=no action)
From the text: as §2

Setaria [8] = assay: Pre-emergent herbicidal action; conditions: 2000 g AS/ha sprayed immediately after sowing; evaluated 3 weeks later; rating scale 1-9 (1=total damage, 9=no action)
From the text: as §2

Cyperus [9] = assay: Pre-emergent herbicidal action; conditions: 2000 g AS/ha sprayed immediately after sowing; evaluated 3 weeks later; rating scale 1-9 (1=total damage, 9=no action)
From the text: as §2

Solanig [10] = assay: Pre-emergent herbicidal action; conditions: 2000 g AS/ha sprayed immediately after sowing; evaluated 3 weeks later; rating scale 1-9 (1=total damage, 9=no action)
From the text: as §2

Row | SMILES | Post-emergent action, test plant Stellaria, rating (Stellaria [1]) | Post-emergent action, test plant Sinapsis, rating (Sinapsis [2]) | Post-emergent action, test plant Setaria, rating (Setaria [3]) | Post-emergent action, test plant Cyperus, rating (Cyperus [4]) | Post-emergent action, test plant Solanig, rating (Solanig [5]) | Pre-emergent action, test plant Stellaria, rating (Stellaria [6]) | Pre-emergent action, test plant Sinapsis, rating (Sinapsis [7]) | Pre-emergent action, test plant Setaria, rating (Setaria [8]) | Pre-emergent action, test plant Cyperus, rating (Cyperus [9]) | Pre-emergent action, test plant Solanig, rating (Solanig [10])
1 | COCc1c(S(C)(=O)=O)ccc(C(=O)C2=C(O)C3CCC(C3)C2=O)c1C (centres unmarked) [1,001, 4-hydroxy-3-(4-methylsulphonyl-3-methoxymethyl-2-methyl-benzoyl)-bicyclo[3.2.1]oct-3-en-2-one] | 2 | 2 | 2 | 3 | 2 | 2 | 3 | 3 | 3 | 2
2 | COCc1c(S(C)(=O)=O)ccc(C(=O)C2=C(O)C(C)(C)ON(C)C2=O)c1C [2,001, 5-hydroxy-4-(4-methylsulphonyl-3-methoxymethyl-2-methyl-benzoyl)-2,6,6-trimethyl-6.H.-[1,2]oxazin-3-one] | 4 | 2 | 3 | 3 | 2 | 2 | 2 | 3 | 3 | 2
